We go through 13 molecules from article PMC10648204, “Discovery of Novel Biphenyl Carboxylic Acid Derivatives as Potent URAT1 Inhibitors” (Molecules, 2023).

pIC50: −log10 of the molar value.

For one data set, the system named is URAT1. To be noted: general statement in the introduction; cited from earlier work.
For another data set, the target named is T1, human URAT1 (Homo sapiens, UniProt Q96S37).
T1 construct: expressed in transfected cells; host or cells: HEK293T cells (ATCC CRL-11268)
T1 sequence (Q96S37 1-553): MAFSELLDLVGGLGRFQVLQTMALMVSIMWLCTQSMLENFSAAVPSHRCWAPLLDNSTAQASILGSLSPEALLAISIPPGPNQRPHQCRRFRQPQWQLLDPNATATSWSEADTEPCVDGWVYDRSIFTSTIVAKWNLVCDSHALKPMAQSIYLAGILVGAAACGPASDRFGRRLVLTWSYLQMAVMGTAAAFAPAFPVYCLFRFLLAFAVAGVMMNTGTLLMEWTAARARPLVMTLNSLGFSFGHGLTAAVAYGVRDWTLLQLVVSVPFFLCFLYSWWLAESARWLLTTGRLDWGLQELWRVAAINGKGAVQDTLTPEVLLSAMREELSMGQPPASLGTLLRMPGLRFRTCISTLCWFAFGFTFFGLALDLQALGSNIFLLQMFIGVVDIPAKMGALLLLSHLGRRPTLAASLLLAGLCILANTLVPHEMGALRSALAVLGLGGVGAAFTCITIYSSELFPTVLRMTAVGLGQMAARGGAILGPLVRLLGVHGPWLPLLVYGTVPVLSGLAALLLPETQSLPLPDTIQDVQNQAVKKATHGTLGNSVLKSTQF
The experiment in a line: In vitro URAT1 inhibitory assay (14C-uric acid uptake in HEK293T cells expressing human URAT1). Type of data set: cell-based. The note with it: HEK293-URAT1 cells, 14C-labeled uric acid substrate; for inhibition at 10 µM: HEK-293T, 10 μM compound, mean of three measurements. As to the method: All the target compounds were evaluated for their URAT1 inhibitory activities in HEK293-URAT1 cells using ^14C-labeled uric acid as the substrate. […] The SAR exploration on series A compounds mainly focused on the hydrophobic component. […] For series B compounds, the ortho-substituted biphenyl carboxylic acid was initially kept, and various aromatic components were incorporated (B1–B25). […] Different substituents were introduced onto the 4-pyridyl (B15–B21).
In Vitro URAT1 Inhibitory Assay. A transient expression system of human URAT1 in HEK293T cells was constructed to measure ^14C-uric acid transport. […] The cell cryovials were removed from liquid nitrogen storage, and immediately placed on dry ice prior to thawing. […] The cell suspension was transferred into a 15 mL centrifuge tube, and 10 mL complete medium (DMEM +10% FBS +500 μg/mL G418 +1% P/S) was added. After centrifugation at 1000 rpm for 5 min, the supernatant was discarded, and cell precipitation was resuspended in 5 mL complete medium and transferred to a T75 culture flask. […] The uptake assay test could be carried out after cell culture adherent to the well in the 96-well plate. Then, the cells were washed with 200 µL/well of pre-warmed Cl^- free HBSS buffer, and all buffer was removed at the last washing. 50 µL/well of Cl^- free HBSS Buffer containing Uric acid [8-^14C] (2.5 μCi/mL) and samples were added to the cells, and incubated for 8 min. Then, the cells were washed three times with Cl^- free HBSS Buffer and all buffer was removed at the last washing. 50 µL/well of lysis buffer (100 mM NaOH) was added to the lysate cells and stirred at 900 rpm for 5 min. 150 µL/well MicroScint™-40 cocktail was added and agitated at 900 rpm for 5 min. Finally, the 96-plate was counted in a MicroBeta2 (PerkinElmer). The data were analyzed and IC50 values was calculated with GraphPad Prism 6 software.

On to `O=C(O)CSc1nnc(Br)n1-c1ccc(C2CC2)c2ccccc12` [Lesinurad], for which the “IC50 (URAT1 inhibitor potency level, in words)” value in the data set with URAT1 was “micromolar level”.
For the molecule `CCc1oc2ccccc2c1C(=O)c1cc(Br)c(O)c(Br)c1` [Benz, benzbromarone], the “IC50 (URAT1 inhibitor potency level, in words)” value in the data set with URAT1 is “submicromolar level”.
The molecule `O=C(O)c1ccccc1-c1ccccc1-c1nc(-c2ccnc3ccccc23)no1` [Compound B22] registered a melting point of 258 to 259 °C. Also, on human URAT1, the pIC50 is 5.96 and the inhibition at 10 µM was found to be 89%.
With `O=C(O)c1ccccc1-c1ccccc1-c1nc(-c2ccsc2)no1` [Compound B10], the melting point lay in the range of 146 to 148 °C. This molecule also had an inhibition at 10 µM on human URAT1 of 69%.
Regarding `O=C(O)c1ccc(-c2ccccc2-c2nc(-c3ccncc3)no2)cc1` [Compound B29], the melting point is 258 to 260 °C. For the same molecule, testing at 10 µM against human URAT1 gave an inhibition of 18%.
As to `O=C(O)c1ccccc1-c1ccccc1C(=O)N1CCc2ccccc21` [Compound A4], the melting point lay within 195 to 196 °C. At human URAT1, this molecule had a pIC50 of 5.33 and an inhibition at 10 µM of 77%.
The matching figures for `O=C(O)c1ccccc1-c1ccccc1C(=O)N1CCCc2c(Br)cccc21` [Compound A8]: 201 to 202 °C, 5.80 and 90%.
In turn, `O=C(O)c1ccccc1-c1ccccc1C(=O)Nc1ccncc1` [Compound A18] had a melting point of 190 to 191 °C. This molecule also yielded an inhibition at 10 µM on human URAT1 of 11%.
With `COc1cccc(-c2ccc3c(c2)N(C(=O)c2ccccc2-c2ccccc2C(=O)O)CCC3)c1` [Compound A14], the melting point was in the range of 177 to 179 °C. At human URAT1, this molecule showed an inhibition at 10 µM of 58%.
The matching figures for `O=C(O)c1cccc(-c2ccccc2-c2nc(-c3ccncc3)no2)c1` [Compound B28]: 288 to 289 °C and 29%.
Regarding `O=C(NS(=O)(=O)c1ccc(Br)cc1)c1ccccc1-c1ccccc1-c1nc(-c2ccncc2Cl)no1` [Compound B27], the melting point is 188 to 190 °C. On human URAT1, this molecule gave a pIC50 of 5.89 and an inhibition at 10 µM of 96%.
`O=C(O)c1ccccc1-c1ccccc1-c1nc(-c2cccs2)no1` [Compound B9] had a melting point of 140 to 142 °C. This molecule also yielded an inhibition at 10 µM against human URAT1 of 68%.
Take `COc1cc(-c2noc(-c3ccccc3-c3ccccc3C(=O)O)n2)ccn1` [Compound B19]: the melting point was 154 to 156 °C. At human URAT1, this molecule gave a pIC50 of 6.38 and an inhibition at 10 µM of 96%.

By melting point is commonly meant the temperature of the solid-liquid transition. By pIC50 is commonly meant the negative decadic logarithm of the IC50, by convention in mol/L. As a reminder, the inhibition is how much of the control response was suppressed. Read a low inhibition as a weak effect.
